From PubChem BioAssay AID1996 come the findings set out here.

≈ marks a conversion by molar mass, not a printed value.

The conditions of this data set: buffer; pH 7.4; 200.0 µM.
By kinetic solubility is commonly meant the concentration staying in solution when a stock, usually in DMSO, is diluted into the medium. In the case of `O=C(Nc1ccc(F)cc1F)NC1CCN(Cc2c(F)cccc2Cl)CC1`, the kinetic solubility amounted to 5 µg/mL (≈ 12.6 µM).

Turning to `CCCOc1ccc(N/C=C/C(=O)c2ccc(OC)c(OC)c2)cc1`, the solubility (kinetic) is less than 0.7 µg/mL.

Compound `CC(C)(C)C(=O)NC(c1ccccc1)c1c(O)ccc2ccccc12` (configuration not stated) showed a solubility (kinetic) of 0.9 µg/mL (≈ 2.7 µM).

In turn, `CC(=O)c1cccc(NC(=S)NCCc2ccc(F)cc2)c1` yielded a kinetic solubility greater than 47.5 µg/mL.

Regarding `CCOc1ncccc1C(=O)OC(C)C(=O)Nc1ccc(N2CCOCC2)cc1` (configuration not stated), the solubility (kinetic) turned out to be 27.5 µg/mL (≈ 68.8 µM).

`O=S(=O)(c1ccccc1)c1ccc(N2CCCCCC2)cc1` returned a solubility (kinetic) of less than 0.7 µg/mL.

As to `COc1ccc(NC(=O)CSCc2ccc(C#N)cc2)c(OC)c1`, the kinetic solubility is greater than 51.4 µg/mL.

On to `Cc1cccc(NC(=O)c2cccc(NC(=O)c3ccco3)c2)c1C`, for which the solubility (kinetic) was determined as 0.5 µg/mL (≈ 1.5 µM).

Regarding `Cc1cccc(NC(=O)c2cc(=O)c3ccccc3o2)c1`, the kinetic solubility is 1.9 µg/mL (≈ 6.8 µM).

Compound `COc1cccc(/C=C/c2ccccn2)c1O` came in with a kinetic solubility of 34 µg/mL (≈ 150 µM). Against the preceding compound, the solubility kinetic is about 18-fold higher.

In turn, `Cc1ccc2c(c1)N(CC(=O)NCC1CCCO1)C(=O)CO2` (configuration not stated) displayed a kinetic solubility greater than 45.7 µg/mL.

Consider `CCOC(=O)C1CCN(c2nc(C)cc(C)c2C#N)CC1`, for which the kinetic solubility came out at 36.9 µg/mL (≈ 128 µM).

In turn, `COc1cccc(CNC(=O)CCNC(=O)c2ccco2)c1` had a kinetic solubility greater than 45.3 µg/mL.

As to `Cc1cnc(C(=O)OCC(=O)Nc2cccc(S(=O)(=O)N3CCOCC3)c2)cn1`, the solubility (kinetic) is greater than 63.1 µg/mL.

`CC(C)CCN1CCN(Cc2cccs2)CC1CCO` (configuration not stated) registered a solubility (kinetic) of 39.8 µg/mL (≈ 134 µM).

`CC1(C)CC(NC(=O)c2cccc(F)c2)CC(C)(C)N1`: the solubility (kinetic) was determined as 40.8 µg/mL (≈ 147 µM). The solubility kinetic values of the last two compounds are within 1.5-fold of each other.

Compound `CCC(C(=O)O)n1cnc2scc(-c3ccc(C)c(C)c3)c2c1=O` (configuration not stated) gave a solubility (kinetic) greater than 51.4 µg/mL.

`COc1cc([N+](=O)[O-])ccc1NC(=O)C1C2C=CC(C2)C1C(=O)O` (configuration not stated): the solubility (kinetic) is greater than 49.8 µg/mL.

With `O=C(CSc1ccccn1)Nc1cccc2ccccc12`, the solubility (kinetic) amounted to 29.5 µg/mL (≈ 100 µM).

`O=C(O)CC1(CC(=O)Nc2ccc3c(c2)OCCCO3)CCCCC1`: the solubility (kinetic) was 50.6 µg/mL (≈ 146 µM).

Compound `O=C(NCCc1ccccc1)c1coc(=O)c(Br)c1` came in with a solubility (kinetic) of 9.8 µg/mL (≈ 30.4 µM). Compared with the last compound, the solubility kinetic is about 5.2-fold lower.

Take `CCOc1ccc(CC(=O)Nc2cc(=O)n(C)c(=O)n2C)cc1`: the solubility (kinetic) stood at 4.8 µg/mL (≈ 15.1 µM).

With `COCCn1c(Cc2ccccc2)nnc1SCC(=O)Nc1ccccc1`, the kinetic solubility was greater than 57.4 µg/mL.

Take `COc1ccc(S(=O)(=O)NCCCn2ccnc2)cc1Cl`: the kinetic solubility is greater than 49.5 µg/mL.

As to `CCCn1c(CCNC(=O)c2ccco2)nc2ccccc21`, the solubility (kinetic) was 41.7 µg/mL (≈ 140 µM).

With `COc1ccccc1C(=O)Nc1cccc2cccnc12`, the kinetic solubility is less than 0.3 µg/mL.

With `CCCCN(C)C(=O)C1CCN(Cc2cccnc2)CC1`, the kinetic solubility was greater than 43.4 µg/mL.

In turn, `O=C(N/N=C/c1cccnc1)c1ccccc1Cl` came in with a solubility (kinetic) greater than 39 µg/mL.

As to `CC(C)OCCCNC(=O)CN1CCN(Cc2ccc(Cl)cc2)C1=O`, the kinetic solubility was greater than 55.2 µg/mL.

In turn, `Cc1ccc(S(=O)(=O)NCCSc2ncccn2)cc1` gave a kinetic solubility greater than 46.4 µg/mL.

Take `Fc1ccc(-n2c(=S)[nH]c3cccnc32)cc1`: the kinetic solubility was greater than 36.8 µg/mL.

Regarding `COc1ccc(NC(=O)C2CCCNC2=O)cc1` (configuration not stated), the solubility (kinetic) was greater than 37.2 µg/mL.

Take `C=CCNC(=S)Nc1ccc(C)cc1[N+](=O)[O-]`: the solubility (kinetic) is greater than 37.7 µg/mL.

With `CN1C(=O)C(=Cc2coc3ccccc3c2=O)C(=O)N(C)C1=O`, the kinetic solubility was greater than 46.8 µg/mL.

Consider `O=C(CC1CCCC1)Nc1ccc(Cl)c(S(=O)(=O)N2CCOCC2)c1`, for which the kinetic solubility was 54.7 µg/mL (≈ 141 µM).

`Cc1nc(-c2ccc3c(c2)OCCCO3)cs1` had a solubility (kinetic) of 29.1 µg/mL (≈ 118 µM).

`Cc1cccc(C(=O)OCC(=O)NCc2ccco2)c1` had a kinetic solubility greater than 41 µg/mL.

The compound `Cc1ccccc1C(=O)N1CCN(C(c2ccccc2)c2ccccc2)CC1.Cl` displayed a kinetic solubility of 7.8 µg/mL.

`O=C(NC1CCCc2ccccc21)c1cn2ccccc2n1` (configuration not stated) gave a solubility (kinetic) of 39.7 µg/mL (≈ 136 µM). Against the preceding compound, the solubility kinetic is about 5.1-fold higher.

`O=C1CN=C(c2cc([N+](=O)[O-])ccc2Cl)c2cc([N+](=O)[O-])ccc2N1` yielded a solubility (kinetic) of 1.6 µg/mL (≈ 4.44 µM).

`c1ccc2c3c(c(CN4CCCC4)cc2c1)COC3` had a solubility (kinetic) greater than 38 µg/mL.

`CC(C(c1cccs1)c1c(N)n(C)c(=O)n(C)c1=O)[N+](=O)[O-]` (configuration not stated) displayed a solubility (kinetic) greater than 48.7 µg/mL.

Consider `O=C1CN(C(=O)COC(=O)[C@@H]2CC(O)CN2S(=O)(=O)c2ccc(Cl)cc2)c2ccccc2N1` (some centres not stated), for which the solubility (kinetic) was greater than 74.1 µg/mL.

Compound `O=C(CCS(=O)(=O)c1ccccc1)Nc1ncc([N+](=O)[O-])s1` displayed a solubility (kinetic) of 29.2 µg/mL (≈ 85.5 µM).

`Clc1ccccc1NC1=NCCCS1`: the kinetic solubility is greater than 34 µg/mL.

In turn, `COc1ccc(CC(=O)O/N=C(\N)c2ccncc2)cc1` yielded a kinetic solubility of 39.9 µg/mL (≈ 140 µM).

As for `O=C(O)C1CCCN1S(=O)(=O)c1ccc(Cl)cc1` (configuration not stated), the solubility (kinetic) was greater than 43.5 µg/mL.

`NC(=O)C1CCCN(C(=O)CCC(=O)c2cccs2)C1` (configuration not stated) yielded a solubility (kinetic) greater than 44.2 µg/mL.

For the compound `COc1ccc(-c2noc(CCC(=O)NCCc3ccccc3)n2)cc1`, the solubility (kinetic) came to 5.4 µg/mL (≈ 15.4 µM).

Regarding `Cc1ccc(N(Cc2cc(=O)[nH]c3ccccc23)C(=O)C(C)C)c(C)c1`, the kinetic solubility came to 17.7 µg/mL (≈ 50.8 µM).

In turn, `Cc1ccc(NC(=O)CCc2nc3ccccc3s2)c(O)c1` returned a kinetic solubility of 8.9 µg/mL (≈ 28.5 µM).

`CC(C)[C@H](NC(=O)c1ccccc1)C(=O)OCC(=O)NCC1CCCO1` (some centres not stated) showed a kinetic solubility greater than 54.4 µg/mL.
